Experimental data published in the supplement of paper PMC11451515.

System: NOMO1
Assay: cell viability relative to DMSO control; higher = less cytotoxic
Conditions: 48 h
In short: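 Library compounds in DMSO were pin-dosed in an 11-point threefold series (47 μM to 0.79 nM) onto leukemia cells in 1536-well plates (5 μl). Plates held 500 cells/well of NOMO1 or SEM or 1000 cells/well of P12-Ichikawa, each adapted for at least four passages in each medium. Luminescence was read with CellTiter-Glo One after 48 h at 37°C. Viability means the per-plate percentage relative to DMSO wells, using cell-free wells as background.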

[1] = HPLM + 10% dialyzed FBS, 0.000781 µM
[2] = HPLM + 10% dialyzed FBS, 0.00234 µM
[3] = HPLM + 10% dialyzed FBS, 0.00702 µM
[4] = HPLM + 10% dialyzed FBS, 0.0211 µM
[5] = HPLM + 10% dialyzed FBS, 0.0632 µM
[6] = HPLM + 10% dialyzed FBS, 0.19 µM
[7] = HPLM + 10% dialyzed FBS, 0.569 µM
[8] = HPLM + 10% dialyzed FBS, 1.71 µM
[9] = HPLM + 10% dialyzed FBS, 5.12 µM
[10] = HPLM + 10% dialyzed FBS, 15.4 µM
[11] = HPLM + 10% dialyzed FBS, 46.1 µM
[12] = RPMI 5 mM glucose + 10% FBS, 0.000781 µM
[13] = RPMI 5 mM glucose + 10% FBS, 0.00234 µM
[14] = RPMI 5 mM glucose + 10% FBS, 0.00702 µM
[15] = RPMI 5 mM glucose + 10% FBS, 0.0211 µM
[16] = RPMI 5 mM glucose + 10% FBS, 0.0632 µM
[17] = RPMI 5 mM glucose + 10% FBS, 0.19 µM
[18] = RPMI 5 mM glucose + 10% FBS, 0.569 µM
[19] = RPMI 5 mM glucose + 10% FBS, 1.71 µM
[20] = RPMI 5 mM glucose + 10% FBS, 5.12 µM
[21] = RPMI 5 mM glucose + 10% FBS, 15.4 µM
[22] = RPMI 5 mM glucose + 10% FBS, 46.1 µM
[23] = RPMI 5 mM glucose + 10% dialyzed FBS, 0.000781 µM
[24] = RPMI 5 mM glucose + 10% dialyzed FBS, 0.00234 µM
[25] = RPMI 5 mM glucose + 10% dialyzed FBS, 0.00702 µM
[26] = RPMI 5 mM glucose + 10% dialyzed FBS, 0.0211 µM
[27] = RPMI 5 mM glucose + 10% dialyzed FBS, 0.0632 µM
[28] = RPMI 5 mM glucose + 10% dialyzed FBS, 0.19 µM
[29] = RPMI 5 mM glucose + 10% dialyzed FBS, 0.569 µM
[30] = RPMI 5 mM glucose + 10% dialyzed FBS, 1.71 µM
[31] = RPMI 5 mM glucose + 10% dialyzed FBS, 5.12 µM
[32] = RPMI 5 mM glucose + 10% dialyzed FBS, 15.4 µM
[33] = RPMI 5 mM glucose + 10% dialyzed FBS, 46.1 µM

Compound	cell viability [1]	cell viability [2]	cell viability [3]	cell viability [4]	cell viability [5]	cell viability [6]	cell viability [7]	cell viability [8]	cell viability [9]	cell viability [10]	cell viability [11]	cell viability [12]	cell viability [13]	cell viability [14]	cell viability [15]	cell viability [16]	cell viability [17]	cell viability [18]	cell viability [19]	cell viability [20]	cell viability [21]	cell viability [22]	cell viability [23]	cell viability [24]	cell viability [25]	cell viability [26]	cell viability [27]	cell viability [28]	cell viability [29]	cell viability [30]	cell viability [31]	cell viability [32]	cell viability [33]
O=C1NC(=O)/C(=C/c2ccc3nccnc3c2)S1	108%	124%	116%	118%	106%	118%	113%	125%	102%	95.9%	89.3%	98.4%	130%	109%	107%	101%	105%	111%	100%	97.1%	86.6%	103%	118%	109%	132%	110%	111%	118%	103%	106%	92.6%	88.8%	95.3%
C[C@]1(O)CC(C1)C2=NC(=C3[N]2C=CN=C3N)C4=CC5=C(C=C4)C=CC(=N5)C6=CC=CC=C6 (configuration not stated)	95.7%	83.7%	104%	89.9%	107%	72.2%	75.1%	53.8%	31.8%	3.24%	4.22%	86%	88%	92.8%	85.6%	87.4%	85.3%	83.5%	64.3%	33.7%	3.26%	2.26%	86.2%	73.9%	83.8%	91.6%	90.5%	65.8%	82.5%	53.3%	37.7%	4.27%	1.68%
CCc1ccc(OCc2ccccc2C(=O)Nc2ccc3nc(C)cc(N)c3c2)cc1	92.1%	107%	105%	117%	115%	118%	127%	114%	15.3%	6.13%	4.55%	103%	108%	105%	108%	110%	116%	112%	113%	112%	7.05%	4.22%	109%	108%	116%	117%	116%	130%	124%	115%	111%	6.5%	4.65%
O=C(O)c1ccc(O)c2ncc(N3CCOCC3)cc12	90.9%	108%	99.9%	103%	99.3%	101%	109%	105%	97.2%	83.6%	18.9%	93.9%	91.1%	92.7%	92.1%	89.4%	86.3%	87.5%	86.2%	85.4%	79.3%	73.8%	98.1%	101%	111%	104%	107%	94.2%	126%	102%	91.2%	104%	81.5%
CC(C)(N)C(=O)N[C@H](COCc1ccccc1)C(=O)N1CCC2(CC1)CN([S+](C)(=O)[O-])c1ccccc12												117%	122%	132%	124%	123%	123%	122%	115%	113%	109%	110%											
CCN(CC)CCNC(=O)c1c(C)[nH]c(/C=C2\C(=O)Nc3ccc(F)cc32)c1C	79.5%	103%	109%	124%	87.1%	23.4%	30.7%	23%	29.1%	6.81%	4.98%	106%	103%	109%	113%	115%	45.5%	16.1%	21.9%	24.7%	11.5%	3.98%	97.7%	110%	100%	117%	117%	43.1%	22.3%	25.9%	31.8%	11.3%	3.82%
CC(=O)SC[C@@H](C)C(=O)N1CCC[C@H]1C(=O)N[C@@H](Cc1ccccc1)C(=O)O	117%	119%	95.1%	105%	115%	114%	97.2%	101%	111%	110%	89.3%	93.5%	106%	105%	88.7%	94.1%	100%	94.4%	94.5%	85.3%	82.5%	92.1%	103%	99.5%	107%	106%	112%	89.5%	106%	97.3%	103%	106%	91.5%
C[C@@H]1CC[C@@]2(CC[C@]3(C)\C(=C/C[C@@H]4[C@@]5(C)CC[C@H](O)C(C)(C)[C@@H]5CC[C@@]34C)[C@@H]2[C@H]1C)C(O)=O	111%	120%	116%	113%	111%	127%	130%	113%	113%	111%	119%	113%	108%	120%	106%	112%	108%	98.7%	104%	102%	112%	106%	104%	120%	117%	125%	124%	113%	121%	112%	114%	106%	114%
